Where a name gives a salt, the structure may show the parent alone.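 Interpolation was linear, between the two tested concentrations surrounding the appropriate level; five concentrations were tested over 48 hours in 96-well plates. GI50: concentration for 50% inhibition of growth.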 Active and inactive are the calls of the source. Cut-off read from the data, not from the text of the source: active = GI50 up to about 1.1 µM and inactive = higher. Residues, ends and D or L forms follow the SMILES beside them. *: point of attachment. Bn = c1ccc(C*)cc1 A value given as a limit tells only on which side of the number the result lay.

This note sets out measurements from ChEMBL document CHEMBL1201862, “PubChem BioAssay data set” (2004).

Some test systems named below: SK-MEL-28; NCI-H226; SNB-75; NCI-H460; HCT-116; SW-620; HCC 2998; HOP-62; MOLT-4; SK-MEL-5; SR; HL-60; OVCAR-3; U-251; RPMI-8226; M19-MEL; T47D; NCI-H522; NCI/ADR-RES; CAKI-1.
Holding throughout (assay): DTP human tumour cell line panel, 48 h

For `CCOC(=O)C(C)(C)Oc1ccc2c(-c3ccc(Cl)cc3)c(-c3ccc(Cl)cc3)c(=O)oc2c1`, the GI50 is > 100 µM (inactive) with SK-MEL-28; 62.2 µM (inactive) in the assay on NCI-H226; > 100 µM (inactive) with SNB-75; > 100 µM (inactive) in the assay with NCI-H460; 89.5 µM (inactive) with HCT-116; > 100 µM (inactive) in the assay with SW-620. Moreover, the GI50 is > 100 µM (inactive) in the assay on HCC 2998; > 100 µM (inactive) in the assay on HOP-62; > 100 µM (inactive) with MOLT-4; 98.2 µM (inactive) with SK-MEL-5; > 100 µM (inactive) in the assay on SR; 68.7 µM (inactive) in the assay on HL-60. Also, the GI50 was > 100 µM (inactive) in the assay with OVCAR-3, > 100 µM (inactive) in the assay with U-251, 80 µM (inactive) in the assay on RPMI-8226 and > 100 µM (inactive) with M19-MEL.

For the molecule `COc1ccc(/C=C\c2cc(OC)c(OC)c(OC)c2)cc1OC`, the GI50 with T47D was 22.2 µM (inactive); with SK-MEL-28 it was 0.143 µM (active); in the assay with NCI-H226 it was 0.056 µM (active); in the assay with SNB-75, 0.098 µM (active); with NCI-H460 it was 0.142 µM (active); with HCT-116, 0.135 µM (active). In addition, the GI50 is 0.149 µM (active) with SW-620; 0.134 µM (active) in the assay on HCC 2998; 0.128 µM (active) with HOP-62; 0.194 µM (active) with MOLT-4; 0.207 µM (active) with SK-MEL-5; 0.0649 µM (active) with SR. The GI50 was 0.0912 µM (active) in the assay with HL-60; 0.0349 µM (active) in the assay with NCI-H522; 0.0916 µM (active) in the assay on OVCAR-3; 0.117 µM (active) in the assay with U-251; 0.222 µM (active) in the assay on NCI/ADR-RES; 0.156 µM (active) in the assay with CAKI-1. The GI50 with RPMI-8226 is 0.162 µM (active).

Turning to `CC(=O)N1CCC2(C=Nc3ccccc32)CC1`, the GI50 with SK-MEL-28, with SNB-75, in the assay on NCI-H460, with HCT-116, with SW-620 and with HCC 2998 was > 100 µM (inactive) throughout. Besides, the GI50 with HOP-62, in the assay with MOLT-4, in the assay on SK-MEL-5, in the assay with HL-60, in the assay on OVCAR-3 and with U-251 was > 100 µM (inactive) throughout. The GI50 in the assay on CAKI-1, in the assay with RPMI-8226 and in the assay with M19-MEL was > 100 µM (inactive) in each case.

For `CCOC(=O)C1=C(C)N(Cc2ccccc2)C2(O)C=CC(O)=C3C(=O)c4ccccc4C(=O)C312` (stereo unspecified), the GI50 in the assay with T47D was 18.9 µM (inactive); in the assay on SK-MEL-28 it was 28.6 µM (inactive); in the assay with NCI-H226, 20.6 µM (inactive); in the assay on SNB-75 it was 22.1 µM (inactive); with NCI-H460, 11.3 µM (inactive); in the assay with HCT-116, 10.2 µM (inactive). For the same molecule, the GI50 in the assay on SW-620 is 13.6 µM (inactive); with HCC 2998, 17 µM (inactive); with HOP-62 it was 14.2 µM (inactive); with MOLT-4, 8.15 µM (inactive); in the assay with SK-MEL-5, 10.3 µM (inactive); in the assay on SR it was 4.37 µM (inactive). Further, the GI50 in the assay with HL-60 is 15.1 µM (inactive); with NCI-H522, 11.9 µM (inactive); with OVCAR-3 it was 7.67 µM (inactive); in the assay with U-251, 16.6 µM (inactive); with NCI/ADR-RES, 0.182 µM (active); with CAKI-1 it was 12.1 µM (inactive). In the assay on RPMI-8226, the GI50 was 9.42 µM (inactive).

Consider `COc1ccc(C2Oc3ccc(Cl)cc3C=C2[N+](=O)[O-])cc1OC` (stereo unspecified), for which the GI50 with T47D is 1.52 µM (inactive); in the assay on SK-MEL-28, 1.27 µM (inactive); in the assay on NCI-H226, 1.64 µM (inactive); with SNB-75, 1.13 µM (inactive); in the assay on NCI-H460, 2.38 µM (inactive); in the assay on HCT-116, 0.426 µM (active). Further, the GI50 is 0.188 µM (active) in the assay on SW-620; 1.77 µM (inactive) with HCC 2998; 1.49 µM (inactive) with HOP-62; 0.216 µM (active) in the assay on MOLT-4; 1.53 µM (inactive) with SK-MEL-5; 0.0661 µM (active) with SR. For the same molecule, the GI50 in the assay on HL-60 was 0.204 µM (active); in the assay on NCI-H522 it was 1.05 µM (active); in the assay on OVCAR-3 it was 0.719 µM (active); in the assay with U-251, 1.05 µM (active); in the assay on NCI/ADR-RES it was 0.456 µM (active); with CAKI-1, 1.67 µM (inactive). Further, in the assay with RPMI-8226, the 50% growth inhibitory concentration (GI50) was 0.229 µM (active).

As for `CN(C)c1ccc(/C=C/C=C(/C#N)c2ccccc2)cc1`, the GI50 was 9.57 µM (inactive) in the assay on T47D; > 82.4 µM (inactive) in the assay with SK-MEL-28; 53.1 µM (inactive) with NCI-H226; 28.4 µM (inactive) in the assay with SNB-75; 25.5 µM (inactive) with NCI-H460; 16.4 µM (inactive) in the assay with HCT-116. In addition, the GI50 in the assay with SW-620 was 6.34 µM (inactive); with HCC 2998 it was 30.3 µM (inactive); in the assay on HOP-62 it was 19 µM (inactive); with MOLT-4, 11.8 µM (inactive); with SK-MEL-5, 14.5 µM (inactive); in the assay on SR, 3.64 µM (inactive). For the same molecule, the GI50 with HL-60 was 2.74 µM (inactive); in the assay on NCI-H522, 10.5 µM (inactive); in the assay with OVCAR-3 it was 9.91 µM (inactive); in the assay with U-251 it was 17.1 µM (inactive); with NCI/ADR-RES it was 6.92 µM (inactive); in the assay with CAKI-1 it was 33.5 µM (inactive). In addition, in the assay with RPMI-8226, the GI50 was 21.9 µM (inactive).

Turning to `CN(C)CCNC(=O)c1cccc2c1nc(-c1ccc(F)cc1)c1ccccc12`, the GI50 in the assay on SK-MEL-28 is 7.76 µM (inactive); in the assay with NCI-H226 it was 2.06 µM (inactive); in the assay on SNB-75, 10.7 µM (inactive); with NCI-H460 it was 0.417 µM (active); in the assay with HCT-116 it was 2.46 µM (inactive); with SW-620, 2.27 µM (inactive). In addition, the GI50 in the assay on HCC 2998 was 3.34 µM (inactive); in the assay with HOP-62, 1.22 µM (inactive); in the assay on MOLT-4 it was 0.232 µM (active); in the assay with SK-MEL-5 it was 2.34 µM (inactive); in the assay on HL-60, 1.22 µM (inactive); in the assay with OVCAR-3 it was 5.58 µM (inactive). Moreover, the GI50 in the assay with U-251 was 3.18 µM (inactive); with CAKI-1 it was 3.27 µM (inactive); in the assay on M19-MEL it was 5.52 µM (inactive).

For the molecule `[O-][S+](c1ccc(O)cc1)c1ccc(O)cc1`, the GI50 in the assay with SK-MEL-28, with NCI-H226, in the assay with SNB-75, in the assay with NCI-H460, in the assay with HCT-116 and with SW-620 was > 100 µM (inactive) throughout. Moreover, the GI50 in the assay on HCC 2998, in the assay on HOP-62, in the assay on MOLT-4, in the assay on SK-MEL-5, in the assay on HL-60 and with NCI-H522 was > 100 µM (inactive) throughout. The GI50 in the assay with OVCAR-3, in the assay with U-251, in the assay on CAKI-1, in the assay on RPMI-8226 and in the assay on M19-MEL was > 100 µM (inactive) each time.

As for `C[C@]12CC[C@H]3[C@@H](CC=C4C[C@@H](O)CC[C@@]43C)[C@@H]1C/C(=C/c1ccccc1)[C@@H]2O`, the GI50 in the assay on T47D is > 22 µM (inactive); in the assay with SK-MEL-28 it was > 44.6 µM (inactive); with NCI-H226, 18.5 µM (inactive); in the assay with SNB-75 it was > 41.9 µM (inactive); in the assay with NCI-H460, 20.1 µM (inactive); in the assay with HCT-116 it was 8.53 µM (inactive). Moreover, the GI50 is > 51.8 µM (inactive) in the assay on SW-620; 17.9 µM (inactive) in the assay on HCC 2998; 19.7 µM (inactive) in the assay with HOP-62; > 32.7 µM (inactive) in the assay with MOLT-4; 12.1 µM (inactive) in the assay on SK-MEL-5; 3.85 µM (inactive) with SR. Also, the GI50 in the assay with HL-60 is > 43 µM (inactive); in the assay on NCI-H522 it was 14.7 µM (inactive); with OVCAR-3, 16 µM (inactive); in the assay on U-251, > 35.9 µM (inactive); in the assay with NCI/ADR-RES, 17.7 µM (inactive); with CAKI-1 it was 30.3 µM (inactive). The GI50 with RPMI-8226 is > 32.1 µM (inactive).

As to `COC(=O)C(CC(C)C)NC(=O)C(N)Cc1ccc(OCc2ccccc2)cc1` (stereo unspecified) (H-Tyr(Bn)-Leu-OMe; configuration not given here), the GI50 in the assay with T47D, in the assay with SK-MEL-28, with NCI-H226, in the assay with SNB-75, with NCI-H460 and in the assay on HCT-116 was > 10 µM (inactive) in each case. For the same molecule, the GI50 is > 10 µM (inactive) in the assay on SW-620; > 10 µM (inactive) in the assay on HCC 2998; > 10 µM (inactive) with HOP-62; > 10 µM (inactive) in the assay on MOLT-4; > 10 µM (inactive) with SK-MEL-5; 7.64 µM (inactive) in the assay on SR. The GI50 with HL-60 is 2.54 µM (inactive); in the assay on NCI-H522, > 10 µM (inactive); in the assay with OVCAR-3, > 10 µM (inactive); in the assay on U-251, > 10 µM (inactive); in the assay on NCI/ADR-RES, > 10 µM (inactive); in the assay on CAKI-1, > 10 µM (inactive). The GI50 in the assay with RPMI-8226 was > 10 µM (inactive).

For `CN[C@@H]1[C@H](O)[C@H](NC)[C@H]2O[C@@]3(O)C(=O)C[C@@H](C)O[C@H]3O[C@@H]2[C@H]1O` [SPECTINOMYCIN SULFATE], the GI50 in the assay with T47D, in the assay with SK-MEL-28, in the assay with NCI-H226, in the assay on SNB-75, with NCI-H460 and with HCT-116 was > 100 µM (inactive) throughout. The GI50 with SW-620, in the assay with HCC 2998, in the assay with HOP-62, in the assay with MOLT-4, in the assay with SK-MEL-5 and in the assay with SR was > 100 µM (inactive) throughout. The GI50 in the assay on HL-60, with NCI-H522, in the assay with OVCAR-3, in the assay on U-251, in the assay with NCI/ADR-RES and in the assay on CAKI-1 was > 100 µM (inactive) throughout. Moreover, the GI50 in the assay with RPMI-8226 was > 100 µM (inactive).
